The source of these data is the supplement of paper PMC11208160.

The nature of the data set: recombinant barcode read abundance after kanamycin selection (control-corrected) (log10(CPM+1)); higher = more efficient recombination; sequences stand for … in AGTGCAGAGAAAATCGGCCAGTTTTCTCTGCCTGCAGTCCGCATGCCGT…AGATTTATGCAGCGGACTGCCTTTCTCCCAAAGTGATAAACCGGACAGTATCATGGACCGGTTTTCCCGGTAATCCGTATTTGCAAGGTTGGTTTCACT; site = the 11-nt target. In a few lines:
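A vector carrying a T7-inducible recombinase and the last 73 bp of the bridge RNA received, by Gibson cloning, oligos encoding a promoter, target, barcode and the first 104 bridge RNA bases under J23119. The pooled constructs entered E. coli together with a donor plasmid by electroporation. Selection used chloramphenicol/ampicillin/kanamycin with 0.1 mM IPTG, with chloramphenicol/ampicillin LB agar as the control, each in two replicates. Recombination efficiency is the averaged, control-corrected counts-per-million of barcodes at recombinant junctions, reported as log10(CPM+1).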
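Note: IS621 recombinase and bridge RNA in Escherichia coli cells.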

Regarding “GGAGAGGCTTGGGTTCTAACCTGTTGCCT (site GGAGAAGCTAG)”, the “recombinant barcode read abundance (log10)” value came out at 0.893.

As to “GGAGAGGCTTGGGTTCTAACCTGTTGCCT (site GGAGACGCTAG)”, the “recombinant barcode read abundance (log10)” value stood at 0.143.

As to “GGAGAGGCTTGGGTTCTAACCTGTTGCCT (site GGAGAGGCTAG)”, the “recombinant barcode read abundance (log10)” value stood at 1.54.

For the sequence “GGAGAGGCTTGGGTTCTAACCTGTTGCCT (site GGAGATGCTAG)”, the “recombinant barcode read abundance (log10)” value turned out to be 0.0967.

Consider “GGAGATGCTTGGGTTCTAACCTGTTGCCT (site GGAGAAGCTAG)”, for which the “recombinant barcode read abundance (log10)” value is 0.783.

For “GGAGATGCTTGGGTTCTAACCTGTTGCCT (site GGAGACGCTAG)”, the “recombinant barcode read abundance (log10)” value turned out to be 0.291.

For the sequence “GGAGATGCTTGGGTTCTAACCTGTTGCCT (site GGAGAGGCTAG)”, the “recombinant barcode read abundance (log10)” value turned out to be 0.226.

On to “GGAGATGCTTGGGTTCTAACCTGTTGCCT (site GGAGATGCTAG)”, for which the “recombinant barcode read abundance (log10)” value came to 1.74.

Regarding “GGAGCAGCTTGGGTTCTAACCTGTTGCCT (site GGAGCACCTAG)”, the “recombinant barcode read abundance (log10)” value came to 0.223.

Regarding “GGAGCAGCTTGGGTTCTAACCTGTTGCCT (site GGAGCAGCTAG)”, the “recombinant barcode read abundance (log10)” value was found to be 1.16.

For the sequence “GGAGCCTCTTGGGTTCTAACCTGTTGCTC (site GGAGCCTCTGA)”, the “recombinant barcode read abundance (log10)” value amounted to 1.7.

Regarding “GGAGCCTCTTGGGTTCTAACCTGTTGCTC (site GGGGCCTCTCA)”, the “recombinant barcode read abundance (log10)” value was 0.177.

In the case of “GGAGCTCCTTGGGTTCTAACCTGTTGCCG (site ACTCACACTAA)”, the “recombinant barcode read abundance (log10)” value turned out to be 0.152.

Take “GGAGCTCCTTGGGTTCTAACCTGTTGCCG (site GGAGCTCCTCG)”: the “recombinant barcode read abundance (log10)” value was determined as 0.846.

As for “GGAGGGTCTTGGGTTCTAACCTGTTGCTT (site AGAGGGTCTAA)”, the “recombinant barcode read abundance (log10)” value stood at 0.693.

“GGAGGGTCTTGGGTTCTAACCTGTTGCTT (site CGAGGGTCTAA)”: the “recombinant barcode read abundance (log10)” value came to 0.229.

On to “GGAGGGTCTTGGGTTCTAACCTGTTGCTT (site GGAGGGTCTAA)”, for which the “recombinant barcode read abundance (log10)” value worked out at 1.72.

“GGAGGGTCTTGGGTTCTAACCTGTTGCTT (site TGAGGGTCTAA)”: the “recombinant barcode read abundance (log10)” value is 0.292.

In the case of “GGATACACTTGGGTTCTAACCTGTTGCCG (site GGATACACTCG)”, the “recombinant barcode read abundance (log10)” value came to 1.66.

In the case of “GGATACACTTGGGTTCTAACCTGTTGCCG (site TAGACGGCTAT)”, the “recombinant barcode read abundance (log10)” value came out at 0.342.

As to “GGATACACTTGGGTTCTAACCTGTTGCGT (site GGATACACTAC)”, the “recombinant barcode read abundance (log10)” value is 2.76.

Regarding “GGATACACTTGGGTTCTAACCTGTTGCGT (site GGATAGACTAC)”, the “recombinant barcode read abundance (log10)” value came out at 0.0769.

Consider “GGATCCACTTGGGTTCTAACCTGTTGCCT (site AGATCCACTAG)”, for which the “recombinant barcode read abundance (log10)” value came out at 0.306.

Regarding “GGATCCACTTGGGTTCTAACCTGTTGCCT (site CGATCCACTAG)”, the “recombinant barcode read abundance (log10)” value is 0.0861.

Regarding “GGATCCACTTGGGTTCTAACCTGTTGCCT (site GGATCCACTAG)”, the “recombinant barcode read abundance (log10)” value was 0.399.

For “GGATCCACTTGGGTTCTAACCTGTTGCCT (site TGATCCACTAG)”, the “recombinant barcode read abundance (log10)” value is 0.139.

On to “GGATCCTCTTGGGTTCTAACCTGTTGCAT (site GGATCCTCTAT)”, for which the “recombinant barcode read abundance (log10)” value is 1.69.

For the sequence “GGATCCTCTTGGGTTCTAACCTGTTGCAT (site GGCTCCTCTAT)”, the “recombinant barcode read abundance (log10)” value was found to be 0.149.

For the sequence “GGATCTACTTGGGTTCTAACCTGTTGCCT (site GAATCTACTAG)”, the “recombinant barcode read abundance (log10)” value was found to be 0.174.

As to “GGATCTACTTGGGTTCTAACCTGTTGCCT (site GCATCTACTAG)”, the “recombinant barcode read abundance (log10)” value worked out at 0.514.

With “GGATCTACTTGGGTTCTAACCTGTTGCCT (site GGATCTACTAG)”, the “recombinant barcode read abundance (log10)” value was 0.235.

For the sequence “GGATCTACTTGGGTTCTAACCTGTTGCCT (site GTATCTACTAG)”, the “recombinant barcode read abundance (log10)” value turned out to be 0.0262.

Regarding “GGATTGTCTTGGGTTCTAACCTGTTGCTT (site GGATTGTCTAA)”, the “recombinant barcode read abundance (log10)” value was determined as 0.742.

For “GGATTGTCTTGGGTTCTAACCTGTTGCTT (site GGCTAGTCTAA)”, the “recombinant barcode read abundance (log10)” value amounted to 0.0862.

For “GGCACAACTTGGGTTCTAACCTGTTGCCT (site GGCACAACTAG)”, the “recombinant barcode read abundance (log10)” value stood at 0.804.

For the sequence “GGCACAACTTGGGTTCTAACCTGTTGCCT (site GGCACCACTAG)”, the “recombinant barcode read abundance (log10)” value turned out to be 0.0796.

Turning to “GGCACAACTTGGGTTCTAACCTGTTGCCT (site GGCACGACTAG)”, the “recombinant barcode read abundance (log10)” value amounted to 0.262.

Turning to “GGCACAACTTGGGTTCTAACCTGTTGCCT (site GGCACTACTAG)”, the “recombinant barcode read abundance (log10)” value came to 0.0426.

Turning to “GGCACAGCTTGGGTTCTAACCTGTTGCCT (site GGCACAGCTAG)”, the “recombinant barcode read abundance (log10)” value was 0.

For “GGCACAGCTTGGGTTCTAACCTGTTGCCT (site GGCACCGCTAG)”, the “recombinant barcode read abundance (log10)” value came to 0.171.

On to “GGCACAGCTTGGGTTCTAACCTGTTGCCT (site GGCACGGCTAG)”, for which the “recombinant barcode read abundance (log10)” value worked out at 0.067.

For “GGCACAGCTTGGGTTCTAACCTGTTGCCT (site GGCACTGCTAG)”, the “recombinant barcode read abundance (log10)” value worked out at 0.0566.

With “GGCACCACTTGGGTTCTAACCTGTTGCCG (site GGCACCACTCG)”, the “recombinant barcode read abundance (log10)” value is 0.295.

In the case of “GGCACCACTTGGGTTCTAACCTGTTGCCG (site TCTTGACCTAA)”, the “recombinant barcode read abundance (log10)” value is 0.251.

“GGCACCACTTGGGTTCTAACCTGTTGCCT (site GGCACAACTAG)”: the “recombinant barcode read abundance (log10)” value turned out to be 0.0402.

For “GGCACCACTTGGGTTCTAACCTGTTGCCT (site GGCACCACTAG)”, the “recombinant barcode read abundance (log10)” value was determined as 0.722.

As for “GGCACCACTTGGGTTCTAACCTGTTGCCT (site GGCACGACTAG)”, the “recombinant barcode read abundance (log10)” value was 0.0916.

Consider “GGCACCACTTGGGTTCTAACCTGTTGCCT (site GGCACTACTAG)”, for which the “recombinant barcode read abundance (log10)” value was found to be 0.0174.

As for “GGCACTACTTGGGTTCTAACCTGTTGCCT (site GGCACAACTAG)”, the “recombinant barcode read abundance (log10)” value is 0.0867.

Take “GGCACTACTTGGGTTCTAACCTGTTGCCT (site GGCACCACTAG)”: the “recombinant barcode read abundance (log10)” value worked out at 0.716.

Consider “GGCACTACTTGGGTTCTAACCTGTTGCCT (site GGCACGACTAG)”, for which the “recombinant barcode read abundance (log10)” value came out at 0.166.

Turning to “GGCACTACTTGGGTTCTAACCTGTTGCCT (site GGCACTACTAG)”, the “recombinant barcode read abundance (log10)” value was 0.392.

Consider “GGCAGCTCTTGGGTTCTAACCTGTTGCTT (site GGCAGATCTAA)”, for which the “recombinant barcode read abundance (log10)” value was 0.367.

Turning to “GGCAGCTCTTGGGTTCTAACCTGTTGCTT (site GGCAGCTCTAA)”, the “recombinant barcode read abundance (log10)” value stood at 0.281.

In the case of “GGCAGCTCTTGGGTTCTAACCTGTTGCTT (site GGCAGGTCTAA)”, the “recombinant barcode read abundance (log10)” value came out at 0.302.

As to “GGCAGCTCTTGGGTTCTAACCTGTTGCTT (site GGCAGTTCTAA)”, the “recombinant barcode read abundance (log10)” value was found to be 0.0524.

With “GGCAGTCCTTGGGTTCTAACCTGTTGCCT (site GGCAGTCCTAA)”, the “recombinant barcode read abundance (log10)” value came out at 0.111.

Turning to “GGCAGTCCTTGGGTTCTAACCTGTTGCCT (site GGCAGTCCTAG)”, the “recombinant barcode read abundance (log10)” value was 0.206.

For the sequence “GGCATCCCTTGGGTTCTAACCTGTTGCTA (site GGCATCCCTTA)”, the “recombinant barcode read abundance (log10)” value came out at 0.654.

For the sequence “GGCATCCCTTGGGTTCTAACCTGTTGCTA (site TTACAGGCTCG)”, the “recombinant barcode read abundance (log10)” value was found to be 0.205.

As to “GGCATTCCTTGGGTTCTAACCTGTTGCCT (site GGCACTCCTAG)”, the “recombinant barcode read abundance (log10)” value came to 0.0331.

As for “GGCATTCCTTGGGTTCTAACCTGTTGCCT (site GGCATTCCTAG)”, the “recombinant barcode read abundance (log10)” value worked out at 0.0435.

Consider “GGCCTCCCTTGGGTTCTAACCTGTTGCCT (site GGCATCCCTAG)”, for which the “recombinant barcode read abundance (log10)” value came to 0.242.

Take “GGCCTCCCTTGGGTTCTAACCTGTTGCCT (site GGCCTCCCTAG)”: the “recombinant barcode read abundance (log10)” value came to 0.977.

Consider “GGCCTCCCTTGGGTTCTAACCTGTTGCCT (site GGCGTCCCTAG)”, for which the “recombinant barcode read abundance (log10)” value turned out to be 0.947.

For the sequence “GGCCTCCCTTGGGTTCTAACCTGTTGCCT (site GGCTTCCCTAG)”, the “recombinant barcode read abundance (log10)” value stood at 0.0579.

Consider “GGCCTGCCTTGGGTTCTAACCTGTTGCCT (site GGCCTGCCTAG)”, for which the “recombinant barcode read abundance (log10)” value stood at 1.31.

On to “GGCCTGCCTTGGGTTCTAACCTGTTGCCT (site GTCATGCCTAG)”, for which the “recombinant barcode read abundance (log10)” value was 0.0864.

Consider “GGCGAACCTTGGGTTCTAACCTGTTGCAT (site GACGATCCTAT)”, for which the “recombinant barcode read abundance (log10)” value is 0.126.

Take “GGCGAACCTTGGGTTCTAACCTGTTGCAT (site GGCGAACCTAT)”: the “recombinant barcode read abundance (log10)” value was found to be 1.82.

As for “GGCGGTACTTGGGTTCTAACCTGTTGCCT (site GGCGGTACTAG)”, the “recombinant barcode read abundance (log10)” value was 1.12.

Regarding “GGCGGTACTTGGGTTCTAACCTGTTGCCT (site GGCTGCACTAG)”, the “recombinant barcode read abundance (log10)” value was 0.197.

Consider “GGCGTCCCTTGGGTTCTAACCTGTTGCCT (site GGCATCCCTAG)”, for which the “recombinant barcode read abundance (log10)” value came to 0.284.

On to “GGCGTCCCTTGGGTTCTAACCTGTTGCCT (site GGCCTCCCTAG)”, for which the “recombinant barcode read abundance (log10)” value was found to be 0.286.

As to “GGCGTCCCTTGGGTTCTAACCTGTTGCCT (site GGCGTCCCTAG)”, the “recombinant barcode read abundance (log10)” value stood at 1.3.

For “GGCGTCCCTTGGGTTCTAACCTGTTGCCT (site GGCTTCCCTAG)”, the “recombinant barcode read abundance (log10)” value is 0.0801.

For “GGCTAGCCTTGGGTTCTAACCTGTTGCCT (site GGCTAGCCTAG)”, the “recombinant barcode read abundance (log10)” value was 0.423.
